Source: patent US20100144733A1, “Compounds, compositions and methods comprising heteroaromatic derivatives” (Institute for OneWorld Health, priority 2008, published 2010)

Legend:
[1] = molecular target: T1, CFTR (Homo sapiens, UniProt P13569); test: T84 assay (FLIPR membrane potential dye, forskolin/IBMX-stimulated CFTR channel activity); format: cell-based; conditions: imidazole and triazole-containing compounds (Tables 13, 14, 14′), read-out: IC50 (μM) (T84 assay)
T1 construct: endogenous in cells; host or cells: T84 human colonic cells (ECACC)
T1 sequence (P13569 whole entry): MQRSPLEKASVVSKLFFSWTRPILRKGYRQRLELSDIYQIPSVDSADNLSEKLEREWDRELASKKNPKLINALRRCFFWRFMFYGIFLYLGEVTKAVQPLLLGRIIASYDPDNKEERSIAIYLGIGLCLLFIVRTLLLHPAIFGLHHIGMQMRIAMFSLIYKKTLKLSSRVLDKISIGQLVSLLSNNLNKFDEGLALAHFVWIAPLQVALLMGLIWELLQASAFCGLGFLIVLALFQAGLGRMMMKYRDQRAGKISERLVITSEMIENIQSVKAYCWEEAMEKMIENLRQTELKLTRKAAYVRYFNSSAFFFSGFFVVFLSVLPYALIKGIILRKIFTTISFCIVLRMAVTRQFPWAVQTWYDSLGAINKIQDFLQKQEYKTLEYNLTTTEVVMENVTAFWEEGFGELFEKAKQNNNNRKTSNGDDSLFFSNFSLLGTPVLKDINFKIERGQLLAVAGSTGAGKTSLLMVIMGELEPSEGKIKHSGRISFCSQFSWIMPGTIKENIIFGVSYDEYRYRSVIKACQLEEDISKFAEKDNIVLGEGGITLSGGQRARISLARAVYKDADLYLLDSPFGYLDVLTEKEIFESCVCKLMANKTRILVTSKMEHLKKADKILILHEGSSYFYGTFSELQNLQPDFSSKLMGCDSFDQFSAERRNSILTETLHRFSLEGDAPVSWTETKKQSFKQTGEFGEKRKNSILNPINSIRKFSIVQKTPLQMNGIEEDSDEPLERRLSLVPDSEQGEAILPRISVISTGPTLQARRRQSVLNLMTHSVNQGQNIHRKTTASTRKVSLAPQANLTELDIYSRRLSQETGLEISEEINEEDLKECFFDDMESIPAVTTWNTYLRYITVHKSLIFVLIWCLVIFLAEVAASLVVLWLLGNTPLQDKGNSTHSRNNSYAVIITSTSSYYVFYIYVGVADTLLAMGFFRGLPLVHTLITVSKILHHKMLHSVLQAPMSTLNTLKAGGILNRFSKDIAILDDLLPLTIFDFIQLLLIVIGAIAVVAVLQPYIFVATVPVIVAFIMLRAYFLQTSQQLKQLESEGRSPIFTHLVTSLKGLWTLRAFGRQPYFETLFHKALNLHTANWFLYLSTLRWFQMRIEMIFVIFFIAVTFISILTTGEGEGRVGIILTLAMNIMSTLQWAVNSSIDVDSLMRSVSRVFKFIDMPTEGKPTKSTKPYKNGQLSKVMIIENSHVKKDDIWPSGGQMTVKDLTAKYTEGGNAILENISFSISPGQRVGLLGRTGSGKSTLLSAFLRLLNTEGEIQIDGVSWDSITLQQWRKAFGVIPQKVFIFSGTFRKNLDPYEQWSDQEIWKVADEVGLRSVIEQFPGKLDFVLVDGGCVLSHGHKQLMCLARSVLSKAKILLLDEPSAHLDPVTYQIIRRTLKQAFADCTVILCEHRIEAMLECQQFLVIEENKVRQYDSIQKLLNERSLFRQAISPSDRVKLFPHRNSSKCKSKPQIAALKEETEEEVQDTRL
In short: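 Fluorescence from a membrane potential dye in T84 monolayers (HBSS with 10 mM Hepes) is followed each second for 150 s. Cells are exposed to test compound during the 45 min dye loading, then challenged with forskolin (10 μM) and IBMX (100 μM) to open CFTR. Inhibitors suppress the depolarization-driven fluorescence increase.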

[2] = molecular target: T2, CHO-CFTR cell line (Homo sapiens, UniProt P13569); test: CHO-CFTR assay (FLIPR assay, same conditions as the T84 assay); format: cell-based; conditions: imidazole and triazole-containing compounds
T2 construct: expressed in transfected cells; host or cells: CHO (CHO-CFTR cell line)
T2 sequence (P13569 whole entry): as above

SMILES: CN(Cc1ccc(C(C)(C)C)cc1)C(=O)c1ncn(-c2cc(Cl)c(O)c(Cl)c2)n1 [1i, N-(4-tert-butylbenzyl)-1-(3,5-dichloro-4-hydroxyphenyl)-N-methyl-1H-1,2,4-triazole-3-carboxamide]
- IC50 [1]: 4.26 µM
- IC50 [2]: 5.38 µM

SMILES: O=C(NC(c1ccccc1)c1ccccc1)c1ncn(-c2cc(Cl)c(O)c(Cl)c2)n1 [2i, N-benzhydryl-1-(3,5-dichloro-4-hydroxyphenyl)-1H-1,2,4-triazole-3-carboxamide]
- IC50 [1]: 4.88 µM
- IC50 [2]: 6.45 µM

SMILES: O=C(NCc1cccc(OC(F)(F)F)c1)c1ncn(-c2cc(Cl)c(O)c(Cl)c2)n1 [3i, 1-(3,5-dichloro-4-hydroxyphenyl)-N-(3-(trifluoromethoxy)benzyl)-1H-1,2,4-triazole-3-carboxamide]
- IC50 [1]: 7.14 µM
- IC50 [2]: 3.37 µM

SMILES: O=C(c1ncn(-c2cc(Cl)c(O)c(Cl)c2)n1)N1CCN(c2cccc(C(F)(F)F)c2)CC1 [4i, (1-(3,5-dichloro-4-hydroxyphenyl)-1H-1,2,4-triazol-3-yl)(4(3-(trifluoromethyl)phenyl)piperazin-1-yl)methanone]
- IC50 [1]: 8.15 µM
- IC50 [2]: 14.3 µM

SMILES: O=C(c1cn(-c2cc(Br)c(O)c(Br)c2)cn1)N1CCC(Cc2ccccc2)CC1 [19i, (4-benzylpiperidin-1-yl)(1-(3,5-dibromo-4-hydroxyphenyl)-1H-imidazol-4-yl)methanone]
- IC50 [1]: 17.4 µM
- IC50 [2]: 7.5 µM

SMILES: O=C(NCc1cccc(OC(F)(F)F)c1)c1cn(-c2cc(Br)c(O)c(Br)c2)cn1 [20i, 1-(3,5-Dibromo-4-hydroxyphenyl)-N-(3-(trifluoromethoxy)benzyl)-1H-imidazole-4-carboxamide]
- IC50 [1]: 17.6 µM
- IC50 [2]: 2.31 µM

SMILES: O=C(NCc1ccc(F)c(Cl)c1)c1ncn(-c2cc(Cl)c(O)c(Cl)c2)n1 [23i, N-(3-chloro-4-fluorobenzyl)-1-(3,5-dichloro-4-hydroxyphenyl)-1H-1,2,4-triazole-3-carboxamide]
- IC50 [1]: 7.39 µM
- IC50 [2]: 12.5 µM

SMILES: O=C(NCc1cc(F)cc(C(F)(F)F)c1)c1ncn(-c2cc(Cl)c(O)c(Cl)c2)n1 [24i, 1-(3,5-dichloro-4-hydroxyphenyl)-N-(3-fluoro-5-(trifluoromethyl)benzyl)-1H-1,2,4-triazole-3-carboxamide]
- IC50 [1]: 4.93 µM
- IC50 [2]: 15.2 µM

SMILES: O=C(NCCC(c1ccccc1)c1ccccc1)c1ncn(-c2cc(Cl)c(O)c(Cl)c2)n1 [31i, 1-(3,5-dichloro-4-hydroxyphenyl)-N-(3,3-diphenylpropyl)-1H-1,2,4-triazole-3-carboxamide]
- IC50 [1]: 1.67 µM
- IC50 [2]: 12.9 µM

SMILES: O=C(NC(c1ccccc1)c1ccc(Cl)cc1)c1ncn(-c2cc(Cl)c(O)c(Cl)c2)n1 (centres unmarked) [33i, N-((4-chlorophenyl)(phenyl)methyl)-1-(3,5-dichloro-4-hydroxyphenyl)-1H-1,2,4-triazole-3-carboxamide]
- IC50 [1]: 3.66 µM
- IC50 [2]: 4.8 µM

SMILES: CC(C)(C)c1ccc(CNC(=O)c2ncn(-c3cc(Cl)c(O)c(Cl)c3)n2)cc1 [34i, N-(4-tert-butylbenzyl)-1-(3,5-dichloro-4-hydroxyphenyl)-1H-1,2,4-triazole-3-carboxamide]
- IC50 [1]: 1.18 µM
- IC50 [2]: 4.72 µM

SMILES: O=C(NCc1cc(Cl)cc(Cl)c1)c1ncn(-c2cc(Cl)c(O)c(Cl)c2)n1 [36i, 1-(3,5-dichloro-4-hydroxyphenyl)-N-(3,5-dichlorobenzyl)-1H-1,2,4-triazole-3-carboxamide]
- IC50 [1]: 3.7 µM
- IC50 [2]: 13.7 µM

SMILES: O=C(NCc1ccc(Oc2cc(C(F)(F)F)cc(C(F)(F)F)c2)cc1)c1ncn(-c2cc(Cl)c(O)c(Cl)c2)n1 [62i, N-(4-(3,5-bis(trifluoromethyl)phenoxy)benzyl)-1-(3,5-dichloro-4-hydroxyphenyl)-1H-1,2,4-triazole-3-carboxamide]
- IC50 [2]: 8.76 µM

SMILES: CN(C)c1cccc(Oc2ccc(CNC(=O)c3ncn(-c4cc(Cl)c(O)c(Cl)c4)n3)cc2)c1 [64i, 1-(3,5-dichloro-4-hydroxyphenyl)-N-(4-(3-(dimethylamino)phenoxy)benzyl)-1H-1,2,4-triazole-3-carboxamide]
- IC50 [2]: 4.81 µM
